This note sets out measurements from ChEMBL document CHEMBL3352205, “Indazole- and indole-5-carboxamides: selective and reversible monoamine oxidase B inhibitors with subnanomolar potency” (J Med Chem, 2014).

The target in series [1] is T1, Amine oxidase [flavin-containing] B (Rattus norvegicus, UniProt P19643).
T1 sequence (P19643 whole entry): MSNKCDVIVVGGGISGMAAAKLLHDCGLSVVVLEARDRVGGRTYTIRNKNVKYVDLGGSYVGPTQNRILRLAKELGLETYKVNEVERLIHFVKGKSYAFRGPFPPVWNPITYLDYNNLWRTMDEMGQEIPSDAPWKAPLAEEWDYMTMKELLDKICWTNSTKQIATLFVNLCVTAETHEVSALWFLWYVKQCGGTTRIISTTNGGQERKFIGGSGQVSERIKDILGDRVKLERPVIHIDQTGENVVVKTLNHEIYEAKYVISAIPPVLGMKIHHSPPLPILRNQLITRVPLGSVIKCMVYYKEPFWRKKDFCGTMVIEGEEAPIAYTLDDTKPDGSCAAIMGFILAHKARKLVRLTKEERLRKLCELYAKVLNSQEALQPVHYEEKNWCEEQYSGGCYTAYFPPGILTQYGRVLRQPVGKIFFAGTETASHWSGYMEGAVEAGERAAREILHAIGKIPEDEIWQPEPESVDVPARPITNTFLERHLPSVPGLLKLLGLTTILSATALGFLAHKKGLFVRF
The series is described as follows: Inhibition of rat MAO-B from mitochondria-enriched rat liver fractions using p-tyraimne substrate.

For series [2], the species on record is Homo sapiens. Nature of the series: Selectivity index, ratio of IC50 for human recombinant MAO-A to IC50 for human recombinant MAO-B.
Series [3] deals with T2, Amine oxidase [flavin-containing] A (Rattus norvegicus, UniProt P21396).
T2 sequence (P21396 whole entry): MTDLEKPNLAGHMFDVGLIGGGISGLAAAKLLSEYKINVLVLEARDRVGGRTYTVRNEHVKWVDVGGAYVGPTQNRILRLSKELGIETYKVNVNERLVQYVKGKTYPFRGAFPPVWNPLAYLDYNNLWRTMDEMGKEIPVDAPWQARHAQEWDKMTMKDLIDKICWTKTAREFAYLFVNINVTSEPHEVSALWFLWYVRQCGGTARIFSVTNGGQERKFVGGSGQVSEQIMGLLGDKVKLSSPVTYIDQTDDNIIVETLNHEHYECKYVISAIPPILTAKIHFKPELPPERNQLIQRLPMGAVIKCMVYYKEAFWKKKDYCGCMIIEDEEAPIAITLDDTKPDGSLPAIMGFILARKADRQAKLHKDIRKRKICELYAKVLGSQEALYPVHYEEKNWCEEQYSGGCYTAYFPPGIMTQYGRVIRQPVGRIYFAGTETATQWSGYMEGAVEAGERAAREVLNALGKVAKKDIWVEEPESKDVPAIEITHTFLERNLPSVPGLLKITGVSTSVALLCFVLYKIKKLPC
The series is described as follows: Inhibition of rat MAO-A from mitochondria-enriched rat liver fractions using p-tyraimne substrate.

Series [4] deals with T3, Amine oxidase [flavin-containing] B (Homo sapiens, UniProt P27338).
T3 sequence (P27338 whole entry): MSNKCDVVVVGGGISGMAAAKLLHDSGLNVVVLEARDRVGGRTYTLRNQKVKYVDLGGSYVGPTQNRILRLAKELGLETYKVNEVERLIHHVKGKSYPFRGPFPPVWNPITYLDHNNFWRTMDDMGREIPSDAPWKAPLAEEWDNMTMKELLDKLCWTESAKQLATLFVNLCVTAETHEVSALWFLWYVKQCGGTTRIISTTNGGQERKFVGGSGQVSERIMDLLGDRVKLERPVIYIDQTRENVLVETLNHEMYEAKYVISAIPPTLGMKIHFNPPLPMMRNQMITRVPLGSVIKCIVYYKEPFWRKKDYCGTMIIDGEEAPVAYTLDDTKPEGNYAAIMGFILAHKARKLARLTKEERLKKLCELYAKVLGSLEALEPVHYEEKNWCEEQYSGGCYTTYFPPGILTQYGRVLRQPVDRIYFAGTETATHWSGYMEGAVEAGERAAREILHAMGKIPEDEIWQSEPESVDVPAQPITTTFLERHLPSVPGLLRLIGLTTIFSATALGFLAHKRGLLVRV
The series is described as follows: Reversible inhibition of human recombinant MAO-B expressed in baculovirus-infected insect cells using p-tyraimne substrate at 1 nM for 22 mins. The conditions noted are these: 0.001 µM.

Series [5] deals with T4, Amine oxidase [flavin-containing] A (Homo sapiens, UniProt P21397).
T4 sequence (P21397 whole entry): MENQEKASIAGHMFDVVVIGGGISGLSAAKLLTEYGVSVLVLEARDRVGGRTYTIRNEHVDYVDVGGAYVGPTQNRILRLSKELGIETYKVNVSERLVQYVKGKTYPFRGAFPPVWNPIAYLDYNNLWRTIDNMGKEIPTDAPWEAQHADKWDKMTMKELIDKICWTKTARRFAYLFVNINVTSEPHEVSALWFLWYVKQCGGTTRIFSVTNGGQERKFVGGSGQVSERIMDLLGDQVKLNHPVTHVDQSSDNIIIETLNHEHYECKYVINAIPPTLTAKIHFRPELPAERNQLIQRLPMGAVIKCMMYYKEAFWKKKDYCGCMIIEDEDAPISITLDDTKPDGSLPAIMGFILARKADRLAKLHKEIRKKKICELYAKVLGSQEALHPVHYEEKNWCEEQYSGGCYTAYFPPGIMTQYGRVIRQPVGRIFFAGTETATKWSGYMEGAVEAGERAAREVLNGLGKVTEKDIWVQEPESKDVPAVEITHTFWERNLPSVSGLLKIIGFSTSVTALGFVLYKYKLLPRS
The series is described as follows: Inhibition of human recombinant MAO-A expressed in baculovirus-infected insect cells using p-tyraimne substrate. The conditions noted are these: read-out: IC50.

Series [6] concerns the target T2, Amine oxidase [flavin-containing] A. The series is described as follows: Inhibition of rat MAO-A in rat-liver mitochondrial-fraction using [14C]-5-HT substrate.
Series [7] deals with T1, Amine oxidase [flavin-containing] B. The series is described as follows: Inhibition of rat MAO-B in rat-liver mitochondrial-fraction using [14C]-PEA substrate.

Where only a bound is given, the exact number is not on record here.

Broadly, the IC50 is the concentration that inhibits the measured activity by half. `O=C(Nc1ccc(Cl)c(Cl)c1)c1ccc2[nH]ncc2c1`: the results for the IC50 in series [1], in series [3] and in series [5] were 0.00143 µM, more than 10 µM and not below 10 µM, respectively. Also, the Ratio IC50 in series [2] came out at 17100. Moreover, the “inhibition (INH)” value in series [4] was “Active”.
`C#CCNCc1cc2cc(OCc3ccccc3)ccc2[nH]1`: the IC50 in series [6] came out at 0.022 µM; in series [7] it was 1.25 µM.
